Measured values from patent US10124009B2, “Bromodomain inhibitors” (Tensha Therapeutics, Inc., priority 2014, dated 2018).

Key:
[1] = system: RIN-m5F; test: Cell Titer-Glo rat insulinoma cell assay, RIN-m5F; type: cell-based; details: cell proliferation, 168-192 h culture
Experimental: (§1) A Cell Titer-Glo assay was utilized to test the sensitivity of four rat insulinoma (RIN) cell lines, RIN-14B, RIN-m5F, RIN-m, and RIN-5, to Compound 1 and Compound 2.
(§2) Cells were seeded at 5000 cells per well in a 96-well microculture plate in a total volume of 100 μl/well and incubated for 24 hours. 100 μl of 2× testing compounds (Compound 1 or Compound 2), serially diluted 1:4 were added to each well. The concentrations tested for Compound 1 and Compound 2 were 20 μM, 5 μM, 1.25 μM, 0.313 μM, 0.0781 μM, 0.0195 μM, 0.00488 μM, 0.00122 μM, 0.000305 μM, and 0.0000763 μM. After 168-192 total hours of culture 100 μl of media was removed from each well and 50 μl of Cell Titer-Glo (Promega #G7571) was added to each well. The plate was shaken for 2 minutes and allowed to equilibrate for 10 minutes. Luminescence was measured on a Tecan GENios microplate reader. Percent inhibition of cell proliferation was calculated relative to untreated control wells. All tests were performed in triplicate or quadruplicates at each concentration level. IC50 values were calculated using Prism 6.00 curve-fitting with a four parameter-logistic equation.

[2] = Caco-2 permeability assay; details: human; for recovery at 2 h, 10 μM: Caco-2; for Papp A→B at 2 h, 10 μM: Caco-2, Mean Papp, Assay Conc. 10 μM
[3] = system: RIN-m; test: Cell Titer-Glo rat insulinoma cell assay, RIN-m; type: cell-based; details: cell proliferation, 168-192 h culture
Experimental: as §1, §2

[4] = target: BRD4(2) (Homo sapiens (Human), UniProt O60885); test: BROMOscan binding assay BRD4(2)
Experimental: (§3) (S)-JQ (S8) was used as a positive control.
(§4) T7 phage strains displaying bromodomains were grown in parallel in 24-well blocks in an E. coli host derived from the BL21 strain. E. coli were grown to log-phase and infected with T7 phage from a frozen stock (multiplicity of infection=0.4) and incubated with shaking at 32° C. until lysis (90-150 minutes). The lysates were centrifuged (5,000×g) and filtered (0.2 μm) to remove cell debris. […] The liganded beads were blocked with excess biotin and washed with blocking buffer (SeaBlock (Pierce), 1% BSA, 0.05% Tween 20, 1 mM DTT) to remove unbound ligand and to reduce non-specific phage binding.
(§5) Test compounds were prepared as 1000× stocks in 100% DMSO and subsequently serially diluted 1:10 in monoethylene glycol (MEG) to create stocks at 100× the screening concentration (resulting stock solution is 10% DMSO/90% MEG). The compounds were then diluted directly into the assays such that the final concentration of DMSO and MEG were 0.1% and 0.9%, respectively. All reactions were performed in polystyrene 96-well plates in a final volume of 0.135 ml. […] The bromodomain concentration in the eluates was measured by qPCR.
(§6) Most Kds were determined using a compound top concentration=10,000 nM.
(§7) Binding constants (Kds) were calculated with a standard dose-response curve using the Hill equation. The Hill Slope was set to −1. Curves were fitted using a non-linear least square fit with the Levenberg-Marquardt algorithm. […] The amount of bromodomain was measured by qPCR (y-axis) and was plotted against the corresponding compound concentration in nM in log 10 scale.

[5] = system: rat insulinoma (RIN) cell lines; test: Cell Titer-Glo rat insulinoma cell assay, all four cell lines; type: cell-based; details: all cell lines (RIN-14B, RIN-m5F, RIN-m, RIN-5)
Experimental: as §1, §2

[6] = target: BRD4(1) (Homo sapiens (Human), UniProt O60885); test: BROMOscan binding assay BRD4(1)
Experimental: as §3, §4, §5, §6, §7

[7] = IV and oral pharmacokinetics in male Sprague-Dawley rats; type: in vivo, rat; details: for exposures following IV administration: IV 1 mg/kg; for Extrapolated / AUC(0-inf) / AUC(0-t) / Cmax / Tmax / half-life: rat plasma; for bioavailability / AUC(0-inf) / AUC(0-t) / Cmax / Tmax / half-life: male, Sprague-Dawley; for bioavailability: rat, plasma, PO 5 mg/kg, read-out: oral bioavailability F
Experimental: Male Sprague-Dawley (˜250-325 g) with indwelling jugular vein cannulae (JVC) were purchased and allowed to acclimate to the test facility for a minimum of 2 days. All animals were fasted overnight prior to dosing. Oral formulations were prepared by weighing the appropriate amount of the compound into formulation vial and adding the appropriate volume of DMSO (10%), Solutol HS-15 (10%), and saline (80%) (See Table 0 for compound amounts and concentrations of all formulations). Once the test compound was in the vial, DMSO was added and the vial was vortexed for 1-2 minutes and sonicated for 3 minutes. The appropriate volume of Solutol HS-15 was then added to formulation vial and the vial was vortexed for 1-2 minutes and sonicated for 2 minutes. Saline was added and the pH adjusted to about 6.8-7.4, and the vial was vortexed for 2 minutes.
Oral dosing was performed using a ball-tipped gavage needle. […] No abnormalities were observed during the course of the study. Serial samples were collected by via tail snip, or facial vein. Blood samples were collected into NaF Na2EDTA tubes and stored on wet ice until processed to plasma by centrifugation (3500 rpm for 10 minutes at 5° C.) within 30 minutes of collection. Plasma samples were transferred into matrix tubes and stored at −80° C. until transferred to analytical chemistry for analysis. The cellular fraction was discarded. Dose formulation and plasma samples were analyzed for parent drug and metabolite by Agilux Laboratories via LC/MS/MS using an RGA I assay.

[8] = system: RIN-14B; test: Cell Titer-Glo rat insulinoma cell assay, RIN-14B; type: cell-based; details: cell proliferation, 168-192 h culture
Experimental: as §1, §2

[9] = system: RIN-5F; test: Cell Titer-Glo rat insulinoma cell assay, RIN-5F; type: cell-based; details: cell proliferation, 168-192 h culture
Experimental: as §1, §2

[10] = system: Caco-2; test: Caco-2 permeability assay; details: Assay Conc. 10 μM
[11] = in vitro; details: human
[12] = PO Dose (5 mg/kg) vs IV (1 mg/kg)

SMILES | recovery at 2 h, 10 μM [2] [%] | Papp A→B at 2 h, 10 μM [2] [×10⁻⁶ cm/s] | Kd [4] [nM] | Kd values / in vitro binding activity to BRD4(2), in words [4] | Kd [6] [nM] | Kd values / in vitro binding activity to BRD4(1), in words [6] | exposures following IV administration [7] | Extrapolated ([7]; IV Dose (1 mg/kg)) [%] | bioavailability [7] [%] | AUC(0-inf) ([7]; IV Dose (1 mg/kg)) [ng·h/mL] | AUC(0-t) ([7]; IV Dose (1 mg/kg)) [ng·h/mL] | Cmax ([7]; IV Dose (1 mg/kg)) [ng/mL] | Tmax ([7]; IV Dose (1 mg/kg)) [min] | half-life ([7]; IV Dose (1 mg/kg)) [min] | AUC(0-t) ([7]; PO Dose (5 mg/kg)) [ng·h/mL] | Cmax ([7]; PO Dose (5 mg/kg)) [ng/mL] | Tmax ([7]; PO Dose (5 mg/kg)) [min] | other results
Cc1sc2c(c1C)C(c1ccc(Cl)cc1)=N[C@@H](CC(=O)OC1CCC(O)CC1)c1nnc(C)n1-2 (stereo partly shown) [Compound 1] | 98.5 | 30.7 | 1.5 | low Kd values | 1.3 | low Kd values | detected | 0.41 | > 23 | 1500 | 1500 | 1490 | 4.98 | 47.9 | 2360 | 619 | 60 | IC50 [1]: 11.3 nM; IC50 [3]: 12.6 nM; IC50 [5]: < 40 nM; F* ([7]; PO Dose (5 mg/kg) vs IV (1 mg/kg), AUC0-last was used to calculate % F): 31.6%; IC50 [8]: 9.3 nM; IC50 ([9]; Rattus norvegicus): 21.6 nM; IC50 [9]: 19.5 nM
Cc1sc2c(c1C)C(c1ccc(Cl)cc1)=N[C@@H](CC(=O)OCC(C)O)c1nnc(C)n1-2 (stereo partly shown) [Compound 2] | 95.3 | 30.6 | 1.9 | low Kd values | 1.9 | low Kd values | detected | 4.62 | > 23 | – | – | 790 | 4.98 | 27.4 | 2720 | 820 | 60 | IC50 [1]: 42.3 nM; IC50 [3]: 41.5 nM; IC50 [5]: < 80 nM; F [7, 12]: 102.2%; AUC(0-inf) ([7]; PO Dose (5 mg/kg)): 3030 ng·h/mL; half-life ([7]; PO Dose (5 mg/kg)): 107 min; IC50 [8]: 26.5 nM; IC50 ([9]; Rattus norvegicus): 64.5 nM; IC50 [9]: 59.9 nM
Cc1sc2c(c1C)C(c1ccc(Cl)cc1)=N[C@@H](CC(=O)OCC(O)CO)c1nnc(C)n1-2 (stereo partly shown) [Compound 6] | 90.8 | 4.74 | – | – | – | – | – | – | – | – | – | – | – | – | – | – | – | –
Cc1sc2c(c1C)C(c1ccc(Cl)cc1)=N[C@@H](CC(=O)OCCCCCCO)c1nnc(C)n1-2 [Compound 5] | 88.7 | 39.9 | 0.4 | low Kd values | – | low Kd values | detected | 0.75 | – | 516 | 512 | 1070 | 4.98 | 18.1 | 12.1 | 12.2 | 30 | –
CNC(=C[N+](=O)[O-])NCCSCc1ccc(CN(C)C)o1 [Ranitidine, reference compound] | – | – | – | – | – | – | – | – | – | – | – | – | – | – | – | – | – | Mean % recovery [10]: 97.8%; Mean Papp, A-B ([10]; 2 hours): 0.170 10^−6 cm/s
CC(=O)CC(c1ccccc1)c1c(O)c2ccccc2oc1=O (stereo not shown) [Warfarin] | – | – | – | – | – | – | – | – | – | – | – | – | – | – | – | – | – | recovery at 2 h, 10 μM ([11]; Caco-2): 99.9%; Papp A→B at 2 h, 10 μM ([11]; Caco-2, Mean Papp, A-B): 38.8 ×10⁻⁶ cm/s
Cc1sc2c(c1C)C(c1ccc(Cl)cc1)=N[C@@H](CC(=O)OCCO)c1nnc(C)n1-2 [Compound 3] | 88.7 | 29.8 | 1.2 | low Kd values | 1.1 | low Kd values | – | – | – | – | – | – | – | – | – | – | – | –
Cc1sc2c(c1C)C(c1ccc(Cl)cc1)=N[C@@H](CC(=O)OCCCO)c1nnc(C)n1-2 [Compound 4] | 99.4 | 35.6 | 1.3 | low Kd values | 1.1 | low Kd values | detected | 0.28 | > 23 | 784 | 782 | 1130 | 4.98 | 48.4 | 813 | 480 | 30 | F [7, 12]: 23.4%; AUC(0-inf) ([7]; PO Dose (5 mg/kg)): 918 ng·h/mL; half-life ([7]; PO Dose (5 mg/kg)): 110 min
Cc1sc2c(c1C)C(c1ccc(Cl)cc1)=N[C@@H](CC(=O)OC/C(Br)=C(\Br)CO)c1nnc(C)n1-2 [Compound 7] | 76.9 | 31.3 | 2.1 | low Kd values | 1.5 | low Kd values | – | – | – | – | – | – | – | – | – | – | – | –
Cc1sc2c(c1C)C(c1ccc(Cl)cc1)=N[C@@H](CC(=O)OC(C)(C)C)c1nnc(C)n1-2 [(S)-JQ1, reference compound] | 84.6 | 35.4 | – | – | – | – | – | – | – | – | – | – | – | – | – | – | – | –
